Results taken from article PMC11191095, “QSAR Reveals Decreased Lipophilicity of Polar Residues Determines the Selectivity of Antimicrobial Peptide Activity” (ACS Omega, 2024).
Where a SMILES comes first, the peptide text is derived from it.

Experiments:
Test in all cases: microbe, parasite or virus in culture
[1] = tested on: E. coli LEC001; format: cell-based, Escherichia coli
In short: (§1)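 Peptides 128→2 μg/mL, 2-fold series; inoculum ~5 × 10^5 CFU/mL from overnight culture (OD600 0.01, mixed 1:1). MHB non-cation-adjusted for bacteria, RPMI 1640 + 2% glucose for fungi. 37 °C, 20 h, OD600. MIC50/MIC90 at 50%/90% inhibition; n ≥ 3.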

[2] = tested on: E. coli NCTC 12923; format: cell-based, Escherichia coli
In short: as §1

[3] = tested on: P. aeruginosa NCTC 13437; format: cell-based, Pseudomonas aeruginosa; details: P. aeruginosa NCTC 13437 (R)
In short: as §1

[4] = tested on: A. baumannii ATCC 17978; format: cell-based, Acinetobacter baumannii
In short: as §1

[5] = tested on: A. baumannii AYE; format: cell-based, Acinetobacter baumannii; details: A. baumannii AYE (R)
In short: as §1

[6] = tested on: K. pneumoniae M6; format: cell-based, Klebsiella pneumoniae
In short: as §1

[7] = tested on: K. pneumoniae NCTC 13368; format: cell-based, Klebsiella pneumoniae; details: K. pneumoniae NCTC 13368 (R)
In short: as §1

[8] = tested on: S. aureus (MRSA) NCTC 13616; format: cell-based, Staphylococcus aureus; details: S. aureus (MRSA) NCTC 13616 (R)
In short: as §1

[9] = tested on: S. aureus (MRSA) USA300; format: cell-based, Staphylococcus aureus; details: S. aureus (MRSA) USA300 (R)
In short: as §1

[10] = tested on: S. aureus (MSSA) ATCC 9144; format: cell-based, Staphylococcus aureus
In short: as §1

[11] = tested on: C. auris TDG 1912; format: cell-based, Candida auris; details: TDG 1912, 20 h
In short: as §1

[12] = tested on: C. albicans NCPF 3281; format: cell-based
In short: as §1

[13] = tested on: C. glabrata NCPF 8018; format: cell-based
In short: as §1

[14] = tested on: C. krusei NCPF 3876; format: cell-based
In short: as §1

[15] = tested on: C. parapsilosis NCPF 3209; format: cell-based
In short: as §1

[16] = tested on: C. tropicalis NCPF 8760; format: cell-based
In short: as §1

[17] = MHB, 37 °C, 20 h, OD600, min. three biological repeats

CC(C)[C@H](NC(=O)CNC(=O)[C@H](CCCNC(=N)N)NC(=O)[C@H](CCCNC(=N)N)NC(=O)[C@H](CS)NC(=O)[C@@H](NC(=O)[C@H](CS)NC(=O)[C@@H](N)CCCNC(=N)N)C(C)C)C(=O)N[C@@H](CS)C(=O)N[C@@H](CCCNC(=N)N)C(=O)N[C@@H](CS)C(=O)N[C@H](C(=O)N[C@@H](CS)C(=O)N[C@@H](CCCNC(=N)N)C(=O)N[C@@H](CCCNC(=N)N)C(N)=O)C(C)C [BTD15a] (H-RCVCRRGVCRCVCRR-NH2; N-terminus assumed)
Modal MIC ([1]; E. coli LEC001 (R), MHB, 37 °C, 20 h, OD600, min. three biological repeats): 16 mg/L
Modal MIC ([1]; LEC001, 20 h): 8.8 µM
Modal MIC ([2]; E. coli NCTC 12923 (S), MHB, ~5×10^5 CFU/mL, 37 °C, 20 h, OD600, min. three biological repeats): 8 mg/L
Modal MIC ([2]; NCTC 12923, 20 h): 4.4 µM
Modal MIC [3, 17]: > 128 mg/L
Modal MIC ([3]; shown in µM): > 70.2 µM
Modal MIC ([4]; A. baumannii ATCC 17978 (S), MHB, 37 °C, 20 h, OD600, min. three biological repeats): 4 mg/L
Modal MIC ([4]; ATCC 17978, 20 h): 2.2 µM
Modal MIC [5, 17]: 8 mg/L
Modal MIC ([5]; shown in µM): 4.4 µM
Modal MIC ([6]; K. pneumoniae M6 (S), MHB, 37 °C, 20 h, OD600, min. three biological repeats): 32 mg/L
Modal MIC ([6]; M6, 20 h): 17.5 µM
Modal MIC [7, 17]: 32 mg/L
Modal MIC ([7]; shown in µM): 17.5 µM
Modal MIC [8, 17]: 8 mg/L
Modal MIC ([8]; shown in µM): 4.4 µM
Modal MIC [9, 17]: 8 mg/L
Modal MIC ([9]; shown in µM): 4.4 µM
Modal MIC ([10]; ATCC 9144, 20 h): 4.4 µM
Modal MIC ([10]; S. aureus (MSSA) ATCC 9144 (S), MHB, 37 °C, 20 h, OD600, min. three biological repeats): 8 mg/L
Modal MIC50 [11]: > 70.2 µM
Modal MIC90 [11]: > 70.2 µM
Modal MIC50 ([12]; C. albicans NCPF 3281, 50% growth inhibition, RPMI 1640 + 2% glucose, 37 °C, 20 h): 32 mg/L
Modal MIC90 ([12]; C. albicans NCPF 3281, 90% growth inhibition, RPMI 1640 + 2% glucose, 37 °C, 20 h): 64 mg/L
Modal MIC50 ([12]; NCPF 3281, 20 h): 17.5 µM
Modal MIC90 ([12]; NCPF 3281, 20 h): 35 µM
Modal MIC50 ([13]; C. glabrata NCPF 8018, 50% growth inhibition, RPMI 1640 + 2% glucose, 37 °C, 20 h): 128 mg/L
Modal MIC90 ([13]; C. glabrata NCPF 8018, 90% growth inhibition, RPMI 1640 + 2% glucose, 37 °C, 20 h): 128 mg/L
Modal MIC50 ([13]; NCPF 8018, 20 h): 70.2 µM
Modal MIC90 ([13]; NCPF 8018, 20 h): 70.2 µM
Modal MIC50 ([14]; C. krusei NCPF 3876, 50% growth inhibition, RPMI 1640 + 2% glucose, 37 °C, 20 h): 16 mg/L
Modal MIC90 ([14]; C. krusei NCPF 3876, 90% growth inhibition, RPMI 1640 + 2% glucose, 37 °C, 20 h): 16 mg/L
Modal MIC50 ([14]; NCPF 3876, 20 h): 8.8 µM
Modal MIC90 ([14]; NCPF 3876, 20 h): 8.8 µM
Modal MIC50 ([15]; C. parapsilosis NCPF 3209, 50% growth inhibition, RPMI 1640 + 2% glucose, 37 °C, 20 h): 128 mg/L
Modal MIC90 ([15]; C. parapsilosis NCPF 3209, 90% growth inhibition, RPMI 1640 + 2% glucose, 37 °C, 20 h): 128 mg/L
Modal MIC50 ([15]; NCPF 3209, 20 h): 70.2 µM
Modal MIC90 ([15]; NCPF 3209, 20 h): 70.2 µM
Modal MIC50 ([16]; C. tropicalis NCPF 8760, 50% growth inhibition, RPMI 1640 + 2% glucose, 37 °C, 20 h): 8 mg/L
Modal MIC90 ([16]; C. tropicalis NCPF 8760, 90% growth inhibition, RPMI 1640 + 2% glucose, 37 °C, 20 h): 8 mg/L
Modal MIC50 ([16]; NCPF 8760, 20 h): 4.4 µM
Modal MIC90 ([16]; NCPF 8760, 20 h): 4.4 µM
